Results reported in patent publication US7045515B2, “β-lactam compounds process for reproducing the same and serum cholesterol-lowering agents containing the same” (Kotobuki Pharmaceutical Co., Ltd., priority 2001, dated 2006).

Row | SMILES | melting point [°C]
1 | O=C1[C@H](CC[C@H](O)c2ccc(F)cc2)[C@@H](c2ccc(/C=C/COC[C@@H]3O[C@H](CO)[C@@H](O)[C@H](O)[C@H]3O)cc2)N1c1ccc(F)cc1 [Compound 51] | 65 to 67
2 | O=C1[C@H](CC[C@H](O)c2ccc(F)cc2)[C@@H](c2ccc(/C=C/C[C@@H]3O[C@H](CO)[C@@H](O)[C@H](O)[C@H]3O)cc2)N1c1ccc(F)cc1 [Compound 47] | 72 to 74
3 | COc1ccc(N2C(=O)[C@H](CCCc3ccc(F)cc3)[C@H]2c2ccc(C[C@@H]3O[C@H](COC(C)=O)[C@@H](OC(C)=O)[C@H](OC(C)=O)[C@H]3OC(C)=O)cc2)cc1 (relative stereo) [Compound 6, (3S,2R,4R,5R,6R)-2-[(4-{(4S*,3R*)-1-(4-Methoxyphenyl)-3-[3-(4-fluorophenyl)propyl]-2-oxoazetidine-4-yl}phenyl)methyl]-4,5-diacetyloxy-6-(acetoxymethyl)perhydro-2H-pyran-3-ylacetate] | 60 to 62
4 | CCOC(=O)c1ccc(N2C(=O)[C@H](CC[C@H](O)c3ccc(F)cc3)[C@H]2c2ccc(C[C@@H]3O[C@H](CO)[C@@H](O)[C@H](O)[C@H]3O)cc2)cc1 [Compound 42, 4-[3-((3S)-3-(4-Fluorophenyl)-3-hydroxypropyl](4S,3R)-4-(4-{[(2S,5S,3R,4R,6R)-3,4,5-trihydroxy-6-(hydroxymethyl)perhydro-2H-pyran-2-yl]methyl}phenyl)-2-oxoazetidinyl]benzoic acid ethyl ester] | 56 to 58
5 | CCOC(=O)C(C)(C)Oc1ccc(N2C(=O)[C@H](CCCc3ccc(F)cc3)[C@H]2c2ccc(C[C@@H]3O[C@H](CO)[C@@H](O)[C@H](O)[C@H]3O)cc2)cc1 (relative stereo) [Compound 18, 2-{4-[(4S*,3R*)-4-{[(5S,2R,3R,4R,6R)-3,4,5-Trihydroxy-6-(hydroxymethyl)perhydro-2H-pyran-2-yl]methyl}phenyl-3-[3-(4-fluorophenyl)propyl]-2-oxoazetidinyl]phenoxy}-2-methylpropionic acid ethyl ester] | 73 to 74
6 | O=C1[C@H](CCCc2ccc(F)cc2)[C@@H](c2ccc(OCC3O[C@H](CO)[C@@H](O)[C@H](O)[C@H]3O)cc2)N1c1ccc(F)cc1 (relative stereo) [Compound 14, (4S*,3R*)-4-(4-{[(4S,5S,2R,3R,6R)-3,4,5-Trihydroxy-6-(hydroxymethyl)perhydro-2H-pyran-2-yl]methoxy}phenyl)-1-(4-fluorophenyl)-3-[3-(4-fluorophenyl)propyl]azetidine-2-one] | 61 to 62
7 | Cc1ccc(CCC[C@H]2C(=O)N(c3ccc(OC(C)(C)C(=O)O)cc3)[C@@H]2c2ccc(C[C@@H]3O[C@H](CO)[C@@H](O)[C@H](O)[C@H]3O)cc2)cc1 (relative stereo) [Compound 21, 2-{4-[(4S*,3R*)-4-{[(5S,2R,3R,4R,6R)-3,4,5-Trihydroxy-6-(hydroxymethyl)perhydro-2H-pyran-2-yl]methyl}phenyl-3-[3-(4-methylphenyl)propyl]-2-oxoazetidinyl]phenoxy}-2-methylpropionic acid] | 161 to 162
8 | O=C1[C@H](CC[C@H](O)c2ccc(F)cc2)[C@@H](c2ccc(CCCOC[C@@H]3O[C@H](CO)[C@@H](O)[C@H](O)[C@H]3O)cc2)N1c1ccc(F)cc1 [Compound 50] | 61 to 63
9 | Cc1ccc(N2C(=O)[C@H](CC[C@H](O)c3ccc(F)cc3)[C@H]2c2ccc([C@@H]3O[C@H](CO)[C@@H](O)[C@H](O)[C@H]3O)cc2)cc1 [Compound 36] | 79 to 81
10 | O=C(O)c1ccc(N2C(=O)[C@H](CC[C@H](O)c3ccc(F)cc3)[C@H]2c2ccc(C[C@@H]3O[C@H](CO)[C@@H](O)[C@H](O)[C@H]3O)cc2)cc1 [Compound 29, 4-[(4S,3R)-3-[(3S)-3-(4-Fluorophenyl)-3-hydroxypropyl]-4-(4-{[(2S,5S,3R,4R,6R)-3,4,5-trihydroxy-6-(hydroxymethyl)perhydro-2H-pyran-2-yl]methyl}phenyl)-2-oxoazetidinyl]benzoic acid] | 148 to 150
11 | CC(=O)OC[C@H]1O[C@@H](Cc2ccc([C@@H]3[C@@H](CCCc4ccc(F)cc4)C(=O)N3c3ccc(F)cc3)cc2)[C@H](OC(C)=O)[C@@H](OC(C)=O)[C@@H]1OC(C)=O (relative stereo) [Compound 3, (3S,2R,4R,5R,6R)-2-[(4-{(4S*,3R*)-1-(4-Fluorophenyl)-3-[3-(4-fluorophenyl)propyl]-2-oxoazetidine-4-yl}phenyl)methyl]-4,5-diacetyloxy-6-(acetoxymethyl)perhydro-2H-pyran-3-ylacetate] | 56 to 58
12 | O=C1[C@H](CC[C@H](O)c2ccc(F)cc2)[C@@H](c2ccc(CCCCC[C@@H]3O[C@H](CO)[C@@H](O)[C@H](O)[C@H]3O)cc2)N1c1ccc(F)cc1 [Compound 55] | 66 to 68
13 | CC(=O)OC[C@H]1O[C@@H](Cc2ccc([C@@H]3[C@@H](CCCc4ccc(F)cc4)C(=O)N3c3ccc(C)cc3)cc2)[C@H](OC(C)=O)[C@@H](OC(C)=O)[C@@H]1OC(C)=O (relative stereo) [Compound 8, (3S,2R,4R,5R,6R)-2-[(4-{(4S*,3R*)-1-(4-Methylphenyl)-3-[3-(4-fluorophenyl)propyl]-2-oxoazetidine-4-yl}phenyl)methyl]-4,5-diacetyloxy-6-(acetoxymethyl)perhydro-2H-pyran-3-ylacetate] | 56 to 58
14 | O=C1[C@H](CC[C@H](O)c2ccc(F)cc2)[C@@H](c2ccc(CCC[C@@H]3O[C@H](CO)[C@@H](O)[C@H](O)[C@H]3O)cc2)N1c1ccc(F)cc1 [Compound 48] | 81 to 83
15 | O=C1[C@H](CC[C@H](O)c2ccc(F)cc2)[C@@H](c2ccc(/C=C/CC[C@@H]3O[C@H](CO)[C@@H](O)[C@H](O)[C@H]3O)cc2)N1c1ccc(F)cc1 [Compound 52] | 79 to 81
16 | Cc1ccc(N2C(=O)[C@H](CCOc3ccc(F)cc3)[C@H]2c2ccc(C[C@@H]3O[C@H](CO)[C@@H](O)[C@H](O)[C@H]3O)cc2)cc1 [Compound 43, 4-(4-{[(5S,2R,3R,4R,6R)-3,4,5-Trihydroxy-6-(hydroxymethyl)perhydro-2H-pyran-2-yl]methyl}phenyl)(4S,3R)-1-(4-methylphenyl)-3-[3-(4-fluorophenoxy)ethyl]azetidine-2-one] | 96 to 98
17 | O=C1[C@H](CCCc2ccc(F)cc2)[C@H](c2ccc(CC3O[C@H](CO)[C@@H](O)[C@H](O)[C@H]3O)cc2)N1c1ccc(F)cc1 (relative stereo) [Compound 40, (4R*,3R*)-4-(4-{[(5S,2R,3R,4R,6R)-3,4,5-Trihydroxy-6-(hydroxymethyl)perhydro-2H-pyran-2-yl]methyl}phenyl)-3-[3-(4-fluorophenyl)propyl]-1-(4-fluorophenyl)azetidine-2-one] | 78 to 80
18 | O=C1[C@H](CC[C@H](O)c2ccc(F)cc2)[C@@H](c2ccc(CCCC[C@@H]3O[C@H](CO)[C@@H](O)[C@H](O)[C@H]3O)cc2)N1c1ccc(F)cc1 [Compound 53] | 81 to 83
19 | CC(=O)OC[C@H]1O[C@@H](Cc2ccc([C@@H]3[C@@H](CCCc4ccc(F)cc4)C(=O)N3c3ccccc3)cc2)[C@H](OC(C)=O)[C@@H](OC(C)=O)[C@@H]1OC(C)=O (relative stereo) [Compound 10, (3S,2R,4R,5R,6R)-2-[(4-{(4S*,3R*)-1-phenyl-3-[3-(4-fluorophenyl)propyl]-2-oxoazetidine-4-yl}phenyl)methyl]4,5-diacetyloxy-6-(acetoxymethyl)perhydro-2H-pyran-3-ylacetate] | 60 to 61
